From US9302999B2, “Substituted triazoles as herbicides” (E. I. DU PONT DE NEMOURS AND COMPANY, priority 2012, dated 2016)

How the values were obtained:
Format in all cases: in vivo
[1] = test system: crabgrass, large (large crabgrass, Digitaria sanguinalis); assay: Test A pre-/postemergence: crabgrass, large; details: for Crabgrass, Large plant response rating: Postemergence; for Plant response rating, Crabgrass, Large: Preemergence
Outline: (§1)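 Rating scale 0–100 (100 = complete control), visual, ~10 days after application in the greenhouse. Applications: preemergence directed soil spray; postemergence at 1–2 leaves.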

[2] = test system: foxtail, giant (giant foxtail, Setaria faberii); assay: Test A pre-/postemergence: foxtail, giant; details: for Foxtail, Giant plant response rating: Postemergence; for Plant response rating, Foxtail, Giant: Preemergence
Outline: as §1

[3] = test system: pigweed (Amaranthus retroflexus); assay: Test A pre-/postemergence: pigweed; details: for Pigweed plant response rating: Postemergence; for Plant response rating, Pigweed: Preemergence
Outline: as §1

[4] = test system: velvetleaf (Abutilon theophrasti); assay: Test A pre-/postemergence: velvetleaf; details: for Velvetleaf plant response rating: Postemergence; for Plant response rating, Velvetleaf: Preemergence
Outline: as §1

[5] = test system: wheat (Triticum aestivum); assay: Test A pre-/postemergence: wheat; details: for Wheat plant response rating: Postemergence; for Plant response rating, Wheat: Preemergence
Outline: as §1

[6] = test system: barnyardgrass (Echinochloa crus-galli); assay: Test B flooded paddy: barnyardgrass; details: Flood; 250 g ai/ha; applied to paddy water at 2-leaf stage; visually evaluated after 13 to 15 days
Outline: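 Response scored visually, 0–100 relative to controls, 13–15 days after the compound was applied into paddy water; plants were at the 2-leaf stage in pots kept flooded to 3 cm.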

[7] = test system: blackgrass (Alopecurus myosuroides); assay: Test C pre-/postemergence: blackgrass
Outline: (§2)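 Preemergence on seeds in loam/sand, postemergence on 2–18 cm (1–4-leaf) plants in peat-based medium; compounds in non-phytotoxic solvent with surfactant. After 13–15 days in greenhouse, visual rating versus controls, 0 (no effect) to 100 (complete control).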

[8] = test system: ragweed (common ragweed, Ambrosia elation); assay: Test C pre-/postemergence: ragweed
Outline: as §2

[9] = test system: chickweed (common chickweed, Stellaria media); assay: Test C postemergence: chickweed
Outline: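 Greenhouse pot test; foliar postemergence treatment at 1- to 4-leaf stage. Rated visually at 13 to 15 days on a 0–100 control scale relative to untreated plants.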

[10] = 125 g ai/ha, 0 to 100 scale, 0 is no effect, 100 is complete control
[11] = 500 g ai/ha, visual rating on 0 to 100 scale (0 no effect, 100 complete control), approximately ten days
[12] = 125 g ai/ha, 0 to 100 scale (0 no effect, 100 complete control)
[13] = 500 g ai/ha, 0 to 100 scale, 0 is no effect, 100 is complete control
[14] = Postemergence, 31 g ai/ha, scale 0 to 100 (0 no effect, 100 complete control)
[15] = Postemergence, 62 g ai/ha, scale 0 to 100 (0 no effect, 100 complete control)
[16] = Postemergence, 125 g ai/ha, scale 0 to 100, 0 no effect, 100 complete control
[17] = Postemergence, 250 g ai/ha, scale 0 to 100
[18] = Preemergence, 31 g ai/ha, scale of 0 to 100, 0 is no effect, 100 is complete control
[19] = Preemergence, 62 g ai/ha, scale 0 to 100, 0 no effect, 100 complete control
[20] = Preemergence, 125 g ai/ha, scale 0 to 100, 0 no effect, 100 complete control
[21] = Preemergence, 250 g ai/ha, scale 0 to 100, 0 no effect, 100 complete control
[22] = Preemergence, 62 g ai/ha, scale of 0 to 100, 0 is no effect, 100 is complete control
[23] = 31 g ai/ha, scale 0 to 100 (0 no effect, 100 complete control)
[24] = 62 g ai/ha, scale 0 to 100 (0 no effect, 100 complete control)
[25] = 125 g ai/ha, scale 0 to 100, 0 no effect, 100 complete control

## Fc1ccc(-n2nc(Cc3ccnc(C(F)(F)F)c3)c(OC(F)F)n2)cc1 [Compound 25]
[1]; [10]
  Crabgrass, Large plant response rating: 90
[1]; [11]
  Crabgrass, Large plant response rating: 90
[1]; [12]
  Plant response rating, Crabgrass, Large: 90
[1]; [13]
  Plant response rating, Crabgrass, Large: 100
[2]; [10]
  Foxtail, Giant plant response rating: 90
[2]; [11]
  Foxtail, Giant plant response rating: 90
[2]; [12]
  Plant response rating, Foxtail, Giant: 100
[2]; [13]
  Plant response rating, Foxtail, Giant: 100
[3]; [10]
  Pigweed plant response rating: 100
[3]; [11]
  Pigweed plant response rating: 100
[3]; [12]
  Plant response rating, Pigweed: 100
[3]; [13]
  Plant response rating, Pigweed: 100
[4]; [10]
  Velvetleaf plant response rating: 80
[4]; [11]
  Velvetleaf plant response rating: 100
[4]; [12]
  Plant response rating, Velvetleaf: 20
[4]; [13]
  Plant response rating, Velvetleaf: 80
[5]; [10]
  Wheat plant response rating: 40
[5]; [11]
  Wheat plant response rating: 60
[5]; [12]
  Plant response rating, Wheat: 20
[5]; [13]
  Plant response rating, Wheat: 80
[6]
  Plant response rating, Barnyardgrass (0 to 100 scale, 0 is no effect, 100 is complete control): 30
[7]; [14]
  Plant response rating, Blackgrass: 10
[7]; [15]
  Plant response rating, Blackgrass: 35
[7]; [16]
  Plant response rating, Blackgrass: 40
[7]; [17]
  Plant response rating, Blackgrass: 60
[7]; [18]
  Plant response rating, Blackgrass: 60
[7]; [19]
  Plant response rating, Blackgrass: 85
[7]; [20]
  Plant response rating, Blackgrass: 95
[7]; [21]
  Plant response rating, Blackgrass: 100
[8]; [14]
  Plant response rating, Ragweed: 50
[8]; [15]
  Plant response rating, Ragweed: 50
[8]; [16]
  Plant response rating, Ragweed: 60
[8]; [17]
  Plant response rating, Ragweed: 60
[8]; [18]
  Plant response rating, Ragweed: 5
[8]; [22]
  Plant response rating, Ragweed: 5
[8]; [20]
  Plant response rating, Ragweed: 20
[8]; [21]
  Plant response rating, Ragweed: 50
[9]; [23]
  Plant response rating, Chickweed: 30
[9]; [24]
  Plant response rating, Chickweed: 60
[9]; [25]
  Plant response rating, Chickweed: 98
[9]; 250 g ai/ha, scale 0 to 100
  Plant response rating, Chickweed: 98

## FC(F)Oc1nn(-c2ccc(C(F)(F)F)cc2)nc1Cc1ccnc(C(F)(F)F)c1 [Compound 26]
[1]; [10]
  Crabgrass, Large plant response rating: 90
[1]; [11]
  Crabgrass, Large plant response rating: 90
[1]; [12]
  Plant response rating, Crabgrass, Large: 100
[1]; [13]
  Plant response rating, Crabgrass, Large: 100
[2]; [10]
  Foxtail, Giant plant response rating: 90
[2]; [11]
  Foxtail, Giant plant response rating: 90
[2]; [12]
  Plant response rating, Foxtail, Giant: 100
[2]; [13]
  Plant response rating, Foxtail, Giant: 100
[3]; [10]
  Pigweed plant response rating: 100
[3]; [11]
  Pigweed plant response rating: 100
[3]; [12]
  Plant response rating, Pigweed: 100
[3]; [13]
  Plant response rating, Pigweed: 100
[4]; [10]
  Velvetleaf plant response rating: 100
[4]; [11]
  Velvetleaf plant response rating: 100
[4]; [12]
  Plant response rating, Velvetleaf: 80
[4]; [13]
  Plant response rating, Velvetleaf: 90
[5]; [10]
  Wheat plant response rating: 60
[5]; [11]
  Wheat plant response rating: 80
[5]; [12]
  Plant response rating, Wheat: 50
[5]; [13]
  Plant response rating, Wheat: 80
[6]
  Plant response rating, Barnyardgrass (0 to 100 scale, 0 is no effect, 100 is complete control): 60
[7]; [14]
  Plant response rating, Blackgrass: 30
[7]; [15]
  Plant response rating, Blackgrass: 35
[7]; [16]
  Plant response rating, Blackgrass: 70
[7]; [17]
  Plant response rating, Blackgrass: 90
[7]; [18]
  Plant response rating, Blackgrass: 55
[7]; [19]
  Plant response rating, Blackgrass: 90
[7]; [20]
  Plant response rating, Blackgrass: 90
[7]; [21]
  Plant response rating, Blackgrass: 90
[8]; [14]
  Plant response rating, Ragweed: 40
[8]; [15]
  Plant response rating, Ragweed: 55
[8]; [16]
  Plant response rating, Ragweed: 90
[8]; [17]
  Plant response rating, Ragweed: 95
[8]; [18]
  Plant response rating, Ragweed: 15
[8]; [22]
  Plant response rating, Ragweed: 35
[8]; [20]
  Plant response rating, Ragweed: 50
[8]; [21]
  Plant response rating, Ragweed: 75
[9]; [23]
  Plant response rating, Chickweed: 40
[9]; [24]
  Plant response rating, Chickweed: 98
[9]; [25]
  Plant response rating, Chickweed: 100
[9]; 250 g ai/ha, scale 0 to 100
  Plant response rating, Chickweed: 100
